According to PubChem BioAssay (NCI):
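Five compound concentrations were applied to cells in 96-well plates for 48 hours; endpoints were derived by simple linear interpolation of the resulting dose-response curve. Definition used: TGI = concentration required for complete inhibition of growth.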

Experiments:
Assay in all cases: NCI-60 cell line screen, 48 h
[1] = test system: A498 renal
[2] = test system: HOP-92 NSCLC
[3] = test system: IGROV1 ovarian
[4] = test system: KM12 colon
[5] = test system: MALME-3M melanoma
[6] = test system: MDA-N
[7] = test system: MOLT-4 leukemia
[8] = test system: OVCAR-8 ovarian
[9] = test system: RXF 393 renal
[10] = test system: SK-OV-3 ovarian
[11] = test system: SNB-75 CNS
[12] = test system: SR leukemia
[13] = test system: UACC-62 melanoma

Row | Compound | TGI [1] | TGI [2] | TGI [3] | TGI [4] | TGI [5] | TGI [6] | TGI [7] | TGI [8] | TGI [9] | TGI [10] | TGI [11] | TGI [12] | TGI [13]
1 | COC(=O)c1cc2c(c3c1CC(Cc1ccccc1)C3=O)CCC2 (centres undefined) | > 100 µM | 78 µM | > 100 µM | 41.8 µM | > 100 µM | > 100 µM | > 100 µM | > 100 µM | > 100 µM | > 100 µM | > 100 µM | > 100 µM | > 100 µM
2 | CCOP1(=O)CC(C)=C(Cl)C(O)C1 (centres undefined) | > 100 µM | > 100 µM | > 100 µM | > 100 µM | > 100 µM | > 100 µM | > 100 µM | > 100 µM | > 100 µM | > 100 µM | > 100 µM | > 100 µM | > 100 µM
3 | CSC(=S)Nc1cccc(C)n1 | > 100 µM | > 100 µM | > 100 µM | > 100 µM | > 100 µM | > 100 µM | > 100 µM | > 100 µM | > 100 µM | > 100 µM | > 100 µM | > 100 µM | > 100 µM
4 | Fc1ccc(N2C(=S)SC(=Nc3ccccc3)C2=Nc2ccccc2)cc1 | > 100 µM | > 100 µM | > 100 µM | > 100 µM | > 100 µM | > 100 µM | > 100 µM | > 100 µM | > 100 µM | > 100 µM | > 100 µM | > 100 µM | > 100 µM
5 | O=C1CSC2(CC(/C=C/c3cccc([N+](=O)[O-])c3)=NN2c2cccc(S(=O)(=O)O)c2)N1c1nc2ccccc2s1 (centres undefined) | 52.5 µM | 40.3 µM | 36.8 µM | 42.2 µM | > 100 µM | 59.1 µM | 64.9 µM | 30.7 µM | > 100 µM | – | 40.7 µM | 48.3 µM | 45.5 µM
6 | CC(=O)NC1C(OCc2ccccc2)OC(CO)C(O)C1OC(C)C(=O)NC(C)C(=O)NC(CCC(=O)NCCCCNc1c2ccccc2nc2cccc([N+](=O)[O-])c12)C(N)=O (centres undefined) | 0.297 µM | 0.101 µM | 0.612 µM | 0.692 µM | 0.131 µM | 0.0532 µM | 3.13 µM | 0.166 µM | 0.0676 µM | 3.55 µM | 0.569 µM | 0.0539 µM | 0.115 µM
7 | CCOC(=O)C(=CNc1ccc(NC2=NCC(C)S2)cc1)C(=O)OCC (centres undefined) | > 100 µM | > 86.7 µM | > 100 µM | > 87.9 µM | 96.2 µM | > 100 µM | 30 µM | > 100 µM | 97.1 µM | > 100 µM | > 74.1 µM | > 69.8 µM | 26.8 µM
8 | CC(=O)Oc1ccc(/C=C/C(=O)OCCCOC(=O)/C=C/c2ccc(OC(C)=O)c(OC(C)=O)c2)cc1OC(C)=O | > 100 µM | > 100 µM | > 100 µM | > 100 µM | > 100 µM | > 100 µM | > 100 µM | > 100 µM | > 100 µM | > 100 µM | > 100 µM | > 100 µM | > 100 µM
9 | O=C1C(Cl)C2(CC(/C=C/c3ccccc3)=NN2c2cccc(S(=O)(=O)O)c2)N1c1nc2ccccc2s1 (centres undefined) | 38.8 µM | 25.4 µM | 21.1 µM | 30.9 µM | 33.3 µM | 46 µM | 42.2 µM | 25 µM | 42.3 µM | – | 30.3 µM | 30 µM | 29.8 µM
10 | CCCCc1ccc(-n2sc3ncc(C)cc3c2=O)cc1 | – | 87.5 µM | > 100 µM | > 100 µM | 90.1 µM | > 100 µM | > 100 µM | 51.1 µM | 73.8 µM | > 100 µM | > 100 µM | > 100 µM | > 100 µM
11 | CC1(C)OCC([C@H]2O[C@@H](CC(=S)NCCCCCCCCCCCCNC(=S)C[C@H]3O[C@@H](C4COC(C)(C)O4)[C@H]4OC(C)(C)O[C@H]43)[C@H]3OC(C)(C)O[C@H]32)O1 (some centres undefined) | > 100 µM | > 100 µM | > 100 µM | > 100 µM | – | > 100 µM | 80.2 µM | > 100 µM | > 100 µM | – | > 100 µM | > 100 µM | –
12 | O=C(NC1CCN(Cc2ccccc2)CC1)c1ccc(I)cc1 | > 100 µM | > 100 µM | > 100 µM | > 100 µM | – | > 100 µM | > 100 µM | > 100 µM | 85.7 µM | > 100 µM | – | > 100 µM | > 100 µM
13 | COc1ccc(/C(Br)=C2\OC(=O)c3ccccc32)cc1 | – | > 10 µM | > 10 µM | > 10 µM | – | > 10 µM | > 10 µM | > 10 µM | > 10 µM | > 10 µM | > 10 µM | > 10 µM | > 10 µM
